Experimental data reported in patent US4218471A, “Process for the treatment of humans suffering from undesired urotoxic side effects caused by cytostatically active alkylating agents” (Asta-Werke Aktiengesellschaft Chemische Fabrik, priority 1978, dated 1980).
Structures can show the parent of a compound that is named as a salt.

Assays:
[1] = system: kidneys, urinary tracts and urinary bladder; assay: urotoxic side effects in cancer patients treated with ifosfamide (hematuria, albuminuria, damage to kidney and urinary bladder); type: in vivo, human; details: for hematuria under ifosfamide therapy without thiol/disulfide protection: 5 times per day, 5 days
Protocol: In accordance with the known practice of therapy a patient and suffering from a theratoid carcinoma of the testicle, at first is subjected to irradiation and thereafter is treated with ifosfamide [i.e. 2-(N-2-chloroethyl-amino)-3-(2-chloroethyl)-2-oxo-1,3,2-oxazaphosphorinane] at 5 times per day, each time with 60 mg./kg. intravenously and at 5 subsequent days. The patient is simultaneously hydrated by administration of 4 liters of water spread over the day and is alkalinized by administration of hexapotassium hexasodium pentacitrate hydrate complex. […] This necessitated immediate rupture of the therapy. After a recovery period of 14 days, the therapy is repeated. However, 60 mg/kg. of the disodium salt of 2,2'-dithiodi-(ethane sulfonic acid) is administered intravenously and simultaneously with each dose of 60 mg/kg. of ifosfamide. The patient is controlled daily for micro- and […] and for albuminuria.
In another patient suffering from the same tumor, the therapy at first is started with the oral administration of 60 mg./kg. of the disodium salt of 2.2'-dithiodi-(ethane sulfonic acid). Two hours thereafter, 60 mg./kg. of ifosfamide are administered intravenously. The same treatment, i.e. the combination of an oral preadministration of the disodium salt of 2,2'-dithiodi-(ethane sulfonic acid) and a subsequent intravenous administration of 60 mg./kg. of ifosfamide is repeated at 5 subsequent days. […] In both the above treatments a moderate hydration (2 liters per day) has been carried out. The treatment rendered superfluous alkalinization as well as the most burdensome instillation of mercapto group containing compounds into the bladder of the patient by means of a catheter.
According to the general experience with such patients, there occurs very readily […] despite application of all known prophylactic treatments such as hydration, alkalinization or instillation of mercapto group containing compounds into the urinary bladder.
(§1) In accordance with the known practice of therapy, a patient and suffering from a cancer of the ovary, at first is subjected to irradiation and thereafter is treated with ifosfamide [i.e. 2-(N-2-chloroethyl-amino)-3-(2-chloroethyl)-2-oxo-1,3,2-oxazaphosphorinane] at 5 times per day, each time with 60 mg./kg. intravenously and at 5 subsequent days. […] After a recovery period of 14 days the therapy is repeated. However, 35 mg./kg. of the sodium salt of 2-mercapto ethane sulfonic acid is administered intravenously and simultaneously with each dose of 60 mg./kg. of ifosfamide, 60, 120 and, respectively, 180 minutes after this intravenous injection 45 mg. of the disodium salt of 2,2'-dithiodi-(ethanesulfonic acid) each time are administered to the patient. The patient is controlled daily for micro- and macrohematuria and for albuminuria. […] The examination of the urine upon cytotoxic activity at varying times after administration of ifosfamide also was negative.
The same protective treatment was effected with the same favourable results in patients suffering from other cancer deceases such as parvicellular bronchial carcinoma or pancreatic carcinoma.

[2] = system: undesired urotoxic side effects caused by cytostatically active alkylating agents; details: background, cited from earlier work; for protective activity against cytostatically active alkylating agents: cysteine compared with salts of mercapto alkane sulfonic acids, cystine = corresponding disulfide; for effect of introducing solutions into the urinary bladder by catheter: instillation, in particular cytostatics at very high dosages
[3] = examination of the urine upon cytotoxic activity / cytostatically active metabolites after administration of ifosfamide; type: in vivo, human; details: Example 4: same combination with sodium salt of 2-mercapto ethane sulfonic acid
Protocol: as §1

## O=P1(NCCCl)OCCCN1CCCl (stereo not shown) [ifosfamide, 2-(N-2-chloroethyl-amino)-3-(2-chloroethyl)-2-oxo-1,3,2-oxazaphosphorinane]
[1]; Example 1: ifosfamide 60 mg/kg i.v., with hydration 4 liters and alkalinization, testicular carcinoma patient
  hematuria under ifosfamide therapy without thiol/disulfide protection: macrohematuria already on the fourth day
[1]; Example 4: ifosfamide 60 mg/kg i.v., with hydration and alkalinization, patient with cancer of the ovary
  hematuria under ifosfamide therapy without thiol/disulfide protection: microhematuria

## N[C@@H](CS)C(=O)O [cysteine]
[2]
  protective activity against cytostatically active alkylating agents: limited but distinct protective activity
  effect of introducing solutions into the urinary bladder by catheter: very limited

## O=S(=O)(O)CCSSCCS(=O)(=O)O [disodium salt of 2,2'-dithiodi-(ethanesulfonic acid)]
[3]; after ifosfamide
  cytostatically active metabolites in the urine: No cytostatically active metabolites were found in the urine
[3]; varying times after ifosfamide
  cytotoxic activity of the urine: negative
[1]; Example 1: 60 mg/kg i.v. simultaneously with each dose of 60 mg/kg ifosfamide, same patient after 14 days recovery
  erythrocytes, albumina or granular cylindrical cells in the urine: At no time during the treatment erythrocytes, albumina or granular cylindrical cells were found in the urine of the patient
[1]; Example 2: 60 mg/kg oral, two hours before ifosfamide 60 mg/kg i.v., 5 subsequent days, moderate hydration 2 liters per day
  damage to kidney or urinary bladder, hematuria, albumina or granular cylindrical cells in the urine: no indication of any damage to the kidney or the urinary bladder or of hematuria or of albumina or granular cylindrical cells in the urine of the patient at any time during the treatment
[1]; Example 3: 60 mg/kg i.v. simultaneously with ifosfamide 60 mg/kg i.v. single dose over 5 days, patient sensibilized by regional radiotherapy
  damage to the kidneys and the urinary bladder: there did not occur any damage to the kidneys and the urinary bladder
[1]; Example 4: 35 mg/kg sodium salt of 2-mercapto ethane sulfonic acid i.v. simultaneously with ifosfamide 60 mg/kg, then 45 mg disodium salt of 2,2'-dithiodi-(ethanesulfonic acid) at 60, 120 and 180 minutes
  hematuria or albuminuria: no indication of hematuria or albuminuria

## CC(=O)N[C@@H](CS)C(=O)O [N-acetylcysteine]
[2]; instillation into urinary bladder with cyclophosphamide and ifosfamide at very high dosages
  clinical effectiveness of the instillation prophylaxis: by no means was satisfactory
[2]
  effect of introducing solutions into the urinary bladder by catheter: very limited

## N[C@@H](CSSC[C@H](N)C(=O)O)C(=O)O [cystine]
[2]
  protective activity against cytostatically active alkylating agents: does not have any such protective activity
